Values quoted from earlier work as cited in US11427542B2, “Compounds for treatment of cardiac arrhythmias and heart failure” (Elex Biotech, Inc., priority 2018, dated 2022).

Test system: R176Q/+ mice
Conditions: cardiac pacing, versus placebo-treated

CCCCNc1ccc(C(=O)OCCN(CC)CC)c(OC)c1 [Compound 1]
arrhythmic development (bidirectional VT / sustained polymorphic VT) following pacing: protected from arrhythmic development following pacing
